The values that follow come from US20230001017A1, “FORMULATION FOR DELIVERY OF LUBRICIN GENE” (University of lowa Research Foundation, priority 2019, published 2023).

Series [1] can be described thus: Drug content of PLGA pellets. Type of series: physicochemical. As for the experimental part:
Drug-loaded PLGA pellets were made by the hot-melt extrusion method (Leelakanok et al., […]; Danyuo et al., 2017). The goal was to load the maximum amount of drug possible in the pellets, which varies depending on the physical and chemical properties of the drugs and their behavior during the hot melt extrusion process. The maximum doses carried in PLGA pellets were 120±3.6 μg SSZ/mg pellet, 126±5 μg BAPN/mg pellet, and 250±3.2 μg CHP/mg pellet. In vitro tests confirmed the drugs and pellets were not cytotoxic (FIG. 40).
To determine the drug content of the pellets, the pellets were individually dissolved in chloroform (500 μL) and then mixed with 1 mL water to let the active ingredient migrate to the aqueous phase for at least 30 minutes. Drug elution profiles were characterized in vitro prior to implantation. Elution was measured by incubation of the pellets in phosphate buffered saline (PBS) at 37° C. in a shaking incubator set to 300 rpm (FIGS. 30B, C, and D) (Leelakanok et al., 2018; Danyuo et al., 2017). At each time point, PBS was removed from the pellets and replaced with fresh PBS. The amount of BAPN released at each time point was determined using a Fluorescamine assay followed by fluorescent spectroscopy (excitation wavelength: 390 nm, emission wavelength: 475 nm). The amount of CHP released at each time point was determined by hydroxyproline assay with spectrophotometric detection at 560 nm. The amount of SSZ released at each time point was determined using UV spectroscopy at 359 nm.

Series [2] has as its system stifle joint stiffness. The series is described as follows: Flexion-extension testing, rabbit stifle joint immobilization model. It is filed as in vivo. The note with it: 8 weeks after pellet implantation; for Maximum torque (joint stiffness): versus blank pellet control. The text has this: (§1) The minimal number of animals was used to assess the specific aims of this study. Eight-rabbits were included in each of the treatment groups. […] Non-immobilized, untreated (normal) joints were included to provide normative baselines for joint mobility and histologic outcomes. The study included this normal group, as well as an immobilized group implanted with blank pellets (control), and immobilized groups treated with BAPN-, CHP-, or SSZ-loaded pellets. Joints were immobilized for 8 weeks to establish arthrofibrosis/capsule contracture as previously described (Nesterenko et al., 2009). Kirschner-wires (K-wires) were then removed and the various pellets implanted in the joint. After another 8 weeks the animals were euthanized, and the joints immediately tested for stiffness in extension and anterior-posterior (A-P) laxity. Capsule tissues were harvested for histology to evaluate in situ α-SMA expression and intima thickness, and for in vitro quantitation of cellular contractile activity and α-SMA expression.
Flexion-extension testing of normal and fibrotic joints was performed immediately after euthanasia, when limbs were disarticulated at the hip, stripped of skin and muscle, and fastened securely to a custom testing device equipped with a stepper motor and a 10 N load cell and controlled by a computer with a custom LabVIEW (National Instruments)-based program (FIG. 38) (Hildebrand et al., 2004; Nesterenko et al., 2009). Starting at 10° of extension, the limbs were driven to 170° of extension, and then returned to the starting position at a rotational velocity of 5°/s while continuously recording load and position. The starting extension angle was measured using a digital protractor (Barry Wixey Development) (FIG. 39). The peak torque at maximum extension (N-m) and dissipated energy (mJ) were derived as measures of joint stiffness. The increased hysteresis in immobilized joints arises from posterior capsule stiffening, which restricts extension, but not flexion.

The test system of series [3] is joint capsule fibroblasts (JCFs). The series is described as follows: Collagen gel compaction assay with JCFs from treated joints. It is filed as cell-based, rabbit. The note with it: for Compaction rate: first 12 hours of incubation, versus control; for Maximum compaction at 48 hours: cells from immobilized treated joints versus control joints. As for the experimental part:
(§2) Capsule tissues were harvested and transferred to a T-75 flask with 15 mL of Dulbecco's Modified Eagle Medium/Ham's Formula-12 Nutrient Mixture (DMEM/F-12) media containing 10% fetal bovine serum (FBS), 1% Penn Strep, and 1% Amphotericin B, and incubated at 37° C. in a 5% O2, 5% CO2 atmosphere for about 5 days to allow cells to migrate out of the tissue and adhere to the plate. The JCFs were cultured until confluent (about 2 weeks) before analysis.
Collagen gel compaction assays were used to determine the contractile activity of JCFs isolated from variously treated rabbits (Yuda & McCulloch, 2018). Collagen gels were produced by combining 10×PBS containing phenol red, 1N NaOH, and rat tail type I collagen (2 mg/mL) (Invitrogen), and JCFs to give a final cell concentration of 1×10^6 cells/mL. Five hundred μL of the collagen gel mixture was added to each well in a 24-well plate and allowed to polymerize for 30 minutes in an incubator. After 30 minutes, 500 μL of DMEM containing 10% FBS and 50 μg/mL ascorbic acid was added to each well. The plates were then incubated for 24 hours to allow the cells to generate a state of isometric tension. After 24 hours, the medium was replaced with 500 μL of fresh DMEM containing 10% FBS and ascorbic acid. After 48 hours, the gels were detached from the walls of the wells using a sterile spatula to allow the cells to freely compact the gels. Images were acquired over the next 48 hours, and the changes in gel cross sectional area were measured with ImageJ.
DNA assays were used to control for well-well variations in cell numbers that could affect the rate and extent of gel compaction. After 48 hours of compaction, the medium was aspirated and the gels were washed with PBS thrice. Five hundred μL of 0.25 mg/mL collagenase was added and the plates incubated at 37° C. overnight. Cell pellets were collected by centrifuging at 500 g for 10 minutes. The supernatants were discarded and the pellets frozen at −80° C. overnight. After thawing at room temperature, the pellets were suspended in 1.0 mL of RNAse/DNAse-free water and then sonicated for 30 minutes. DNA concentrations were measured using 0.2 μg/mL of Hoechst 33342 in 10×TNE buffer (100 mM Tris, 2.0 M NaCl, and 10 mM EDTA at pH 7.4) with excitation and emission wavelengths at 360 nm and 460 nm respectively with calf thymus DNA as a standard. A calibration curve was generated to relate DNA concentration to the number of JCFs in the cultures.

In series [4] the test system is α-SMA expression in JCFs. The experiment in a line: α-SMA immunostaining of JCFs from treated joints. Type of series: cell-based, rabbit. To be noted: versus control. As for the experimental part: as §2
JCFs were seeded at a density of 10,000 cells per […] on UV-sterilized glass coverslips. After 48 hours, the medium was discarded and the samples were washed with Dulbecco's PBS (DPBS). The samples were fixed in 4% paraformaldehyde for 1 hour and then rinsed thrice with DPBS. The cells were then permeabilized with 0.5% Triton X for 5 minutes at room temperature and blocked with 10% goat serum for 30 minutes. The samples were then incubated with an anti-α-SMA mouse monoclonal antibody (Abcam) at a 1:100 dilution in DPBS overnight at 4° C. After washing in DPBS, the cells were blocked with goat serum for 30 minutes at 37° C. and then incubated with a fluorophore-conjugated goat anti-mouse IgG secondary antibody (488 excitation) (Life Technologies) at a 1:100 dilution for 30 minutes at 37° C. Cells were then washed thrice with DPBS, incubated with phalloidin at a 1:100 dilution for 30 minutes at 37° C., and then mounted with 4′,6-diamidino-2-phenylindole (DAPI)-containing mounting medium. Stained sections were imaged using an Olympus FV1000 confocal microscope. Percent positive α-SMA (immunostained/DAPI-stained×100) was evaluated in at least 4 microscope fields using ImageJ.

Series [5] deals with normal wound healing. To be noted: therapeutic dose levels; cited from earlier work.
Series [6] concerns fibrosis in a rat stifle joint immobilization model. To be noted: in vivo; cited from earlier work.
Series [7] deals with ACL function. The series is described as follows: Drawer test (A-P laxity), rabbit stifle joint immobilization model. It is filed as in vivo. To be noted: 8 weeks after pellet implantation; versus control.
Text: as §1, with “After another 8 weeks the animals were euthanized, and the joints immediately tested for stiffness in extension and anterior-posterior (A-P) laxity.” left out
After flexion-extension testing, a custom loading fixture was used to assess sagittal-plane laxity (drawer test), which is related to cruciate ligament integrity (Tochigi et al., 2011). […] Force and displacement data were continuously recorded through the sequence of tests, which consisted of three cycles to adjust leg placement for neutral starting position, followed by three cycles of data collection. […]

Series [8] concerns synovial intima. The experiment in a line: Capsule histology, synovial intimal thickness. It is filed as in vivo, rabbit. To be noted: immobilization-induced increase, versus control.
Text: as §1
Portions of the posterior capsule were fixed in 10% neutral buffered formalin, and then processed for paraffin histology. […] Stained slides were imaged using an Olympus VS110 Virtual Microscope System, and intimal thickness was quantified at 5 random areas in the synovial intima using ImageJ.

The test system of series [9] is PTOA after intra-articular fracture. The experiment in a line: Porcine intra-articular fracture (IAF) model. It is filed as in vivo, Yucatan minipig. To be noted: 6 months post-IAF; intra-articular injection, 2.5 mM; anatomically-reduced joints. The text has this:
Yucatan Minipig Intra-articular Fracture Model. The Yucatan minipig model was developed to create an IAF of a reproducible severity without arthrotomy (Goetz et al., 2015). Under general anesthesia, an antero-medial approach to the hock joint, which is analogous to the human ankle joint, is made without disrupting the joint capsule. […] A stress-rising saw cut is made through the anterior tibial cortex, stopping 1-2 mm proximal to the subchondral bone. Two drill holes are made proximal to the saw cut into which a plate with a ball-joint is press fit. This ball joint interfaces with the instrumented sled on our impaction pendulum to rigidly support the tibia. The pendulum delivers a 40 J impact to the impaction tripod, driving the talus against the distal tibia causing a fracture of the distal tibia that is guided by the stress-rising saw cut. The result is a fracture fragment that consists of the anterior third of the distal tibial articular surface which is fixed using standard open reduction and internal fixation (ORIF) techniques (FIG. 12). […] In this study it is determined if lubricin gene therapy is an effective adjunct to amobarbital at the later time point, with or without residual incongruity; thus, all animals in this study survive to 12 months post-fracture. […]

For series [10] the test system is unchanged. To be noted: 12 months post-IAF; cited from earlier work.

“Also recorded” adds a separate entry of the source.

As for `O=C(O)[C@@H]1C[C@@H](O)CN1` (relative stereo) [CHP, Cis-hydroxyproline], the “Maximum dose carried in PLGA pellets” value in [1] came to 250±3.2 μg CHP/mg pellet. In addition, the “Maximum torque (joint stiffness)” value in series [2] is “Neither BAPN nor CHP had significant effects”. For the same compound, the Compaction rate result in [3] is reported as “somewhat lower than control”. Moreover, the “Percent α-SMA positive” value in series [4] is given as “only slightly lower than control”. The “Effect on normal wound healing” value in series [5] is reported as “Neither CHP nor BAPN retarded normal wound healing”.

As to `N#CCCN` [BAPN, beta-amino propionitrile], the “Maximum dose carried in PLGA pellets” value in [1] is listed as 126±5 μg BAPN/mg pellet. Besides, the “Maximum torque (joint stiffness)” value in series [2] is “Neither BAPN nor CHP had significant effects”. For the same compound, in series [3], the “Maximum compaction at 48 hours” value is reported as “significantly lower” and the Compaction rate result is “somewhat lower than control”. For the same compound, the “Maximum compaction at 48 hours” value in [3] (listed as beta-aminopropionitrile) is “significantly inhibited this effect”. Besides, in [4], the “Percent α-SMA positive” value is “nearly significantly lower”. Also, in series [6], the Development of fibrosis result is recorded as “prevented the development of fibrosis”. In addition, in series [5], the “Effect on normal wound healing” value is “Neither CHP nor BAPN retarded normal wound healing”.

In the case of `O=C(O)c1cc(/N=N/c2ccc(S(=O)(=O)Nc3ccccn3)cc2)ccc1O` [SSZ, Sulfasalazine], the “Maximum dose carried in PLGA pellets” value in series [1] is recorded as 120±3.6 μg SSZ/mg pellet. In addition, the “Maximum torque (joint stiffness)” value in series [2] is given as “significantly less stiff than controls”; in series [2] (listed as sulfasalazine), “reduced stiffness”. Further, the Dissipated energy entry in series [2] (versus control) was “significantly reduced”. The “Anterior drawer stiffness / A-P laxity” value in series [7] is “significantly stiffer than controls”. The results for the Synovial intimal thickness entry in series [8] and in [8] (listed as sulfasalazine) were “inhibited significantly” and “significantly lower than control”, respectively. Further, the “Maximum compaction at 48 hours” value is “significantly lower” in series [3] and “significantly inhibited this effect” in [3] (listed as Sulfasalazine). Further, the Compaction rate entry in [3] is “significantly lower compaction rate”. Further, the “Percent α-SMA positive” value was “significantly lower than control” in series [4]; “significantly higher in control versus normal (p=0.0021) and versus sulfasalazine” in [4] (listed as sulfasalazine).

For `CCC1(CCC(C)C)C(=O)NC(=O)NC1=O` [amobarbital], the “PTOA progression at 6 months” value in series [9] was “dramatically forestalled the progression of PTOA; also recorded: highly effective in preventing changes”. Moreover, the “PTOA progression at 12 months” value in [10] is reported as “moderate degenerative changes were observed; also recorded: less effective”.
